Data taken from the supplement of paper PMC4862054.

What was measured:
Experiment in all cases: normalised response (% of control), CellTiter-Glo; higher = more viable cells (100 = DMSO, 0 = benzethonium chloride kill control)
Details in all cases: incubation time: 72 h
MDA-MB-436 = tested on: MDA-MB-436
In short: (§1)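 CellTox Green fluorescence (485/520 nm) and, after 10 min at room temperature, CellTiter-Glo luminescence were read from breast cancer cell lines incubated 72 h in 384-well plates. Cells were seeded as 20 µl suspension onto compound at 5 concentrations in 10-fold steps over a 10,000-fold range chosen per compound. Each plate was normalised to 0.1 % DMSO (100) and a positive kill control (0). Values are normalised signals, one per concentration.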

CAL-148 = tested on: CAL-148
In short: as §1

MDA-MB-453 = tested on: MDA-MB-453
In short: as §1

MCF-10A = tested on: MCF-10A
In short: as §1

CAL-120 = tested on: CAL-120
In short: as §1

CAL-51 = tested on: CAL-51
In short: as §1

DU-4475 = tested on: DU-4475
In short: as §1

HDQ-P1 = tested on: HDQ-P1
In short: as §1

MFM-223 = tested on: MFM-223
In short: as §1

HCC1937 = tested on: HCC1937
In short: as §1

MDA-MB-231 = tested on: MDA-MB-231
In short: as §1

SK-BR-3 = tested on: SK-BR-3
In short: as §1

CAL-85-1 = tested on: CAL-85-1
In short: as §1

BT-474 = tested on: BT-474
In short: as §1

Hs578T = tested on: Hs578T
In short: as §1

MDA-MB-468 = tested on: MDA-MB-468
In short: as §1

HCC1143 = tested on: HCC1143
In short: as §1

HCC1599 = tested on: HCC1599
In short: as §1

BT-549 = tested on: BT-549
In short: as §1

Row | SMILES | normalised response (MDA-MB-436) | normalised response (CAL-148) | normalised response (MDA-MB-453) | normalised response (MCF-10A) | normalised response (CAL-120) | normalised response (CAL-51) | normalised response (DU-4475) | normalised response (HDQ-P1) | normalised response (MFM-223) | normalised response (HCC1937) | normalised response (MDA-MB-231) | normalised response (SK-BR-3) | normalised response (CAL-85-1) | normalised response (BT-474) | normalised response (Hs578T) | normalised response (MDA-MB-468) | normalised response (HCC1143) | normalised response (HCC1599) | normalised response (BT-549)
1 | Nc1ncnc2c1c(COc1cccc(Cl)c1)nn2C1CCOCC1 (1 nM) | 102% | 105% | 102% | 114% | 95.4% | 105% | 101% | 100% | 102% | 100% | 103% | 109% | 95.7% | 102% | 104% | 94.7% | 106% | 107% | 104%
2 | Nc1ncnc2c1c(COc1cccc(Cl)c1)nn2C1CCOCC1 (10 nM) | 105% | 115% | 104% | 114% | 96.6% | 94.8% | 105% | 99.1% | 105% | 97.7% | 107% | – | 101% | 101% | 108% | 106% | 105% | 101% | 98.2%
3 | COc1ccc(-c2ccc3c(N4CCOC[C@@H]4C)nc(N4CCOC[C@@H]4C)nc3n2)cc1CO [AZD8055] (1 nM) | 89.3% | 89.3% | 104% | 85.7% | 90.3% | 116% | 95.5% | 95.2% | 86.8% | 91% | 95.2% | 87.1% | 93.5% | 90.8% | 93.7% | 90.5% | 86.8% | 108% | 98.2%
4 | COc1ccc(-c2ccc3c(N4CCOC[C@@H]4C)nc(N4CCOC[C@@H]4C)nc3n2)cc1CO [AZD8055] (10 nM) | 76.5% | 82.5% | 79.3% | 87% | 81.1% | 92.8% | 92% | 74.6% | 77.8% | 84.2% | 88% | 53.5% | 85.4% | 84.8% | 92.2% | 80.1% | 86.8% | 98.3% | 77.9%
5 | C[C@]12CC[C@H](O)CC1=CC[C@@H]1[C@@H]2CC[C@]2(C)C(c3cccnc3)=CC[C@@H]12 [Abiraterone] (0.5 nM) | 94.7% | 108% | 114% | 102% | 97.6% | 95.7% | 94.5% | 106% | 98% | 96.2% | 105% | 106% | 106% | 104% | 102% | 109% | 94.7% | 119% | 105%
6 | C[C@]12CC[C@H](O)CC1=CC[C@@H]1[C@@H]2CC[C@]2(C)C(c3cccnc3)=CC[C@@H]12 [Abiraterone] (5 nM) | 103% | 91.8% | 116% | 102% | 95.7% | 136% | 109% | 99.5% | 97.5% | 94.6% | 106% | 111% | 110% | 107% | 104% | 99% | 101% | 116% | 95.6%
7 | CN(C)CCN1C(=O)c2cccc3cc(N)cc(c23)C1=O [Amonafide] (1 nM) | 100% | 99.9% | 105% | 88.6% | 99.7% | 120% | 101% | 97.3% | 103% | 99.3% | 102% | 103% | 101% | 104% | 97.6% | 94.7% | 94% | 102% | 101%
8 | CN(C)CCN1C(=O)c2cccc3cc(N)cc(c23)C1=O [Amonafide] (10 nM) | 103% | 86.5% | 98.6% | 97.6% | 97% | 123% | 99.7% | 100% | 99.8% | 96.9% | 102% | – | 98% | 98.7% | 99.8% | 93% | 101% | 95% | 100%
9 | CC(C)(C#N)c1cc(Cn2cncn2)cc(C(C)(C)C#N)c1 [Anastrozole] (1 nM) | 95.2% | 94.8% | 112% | 102% | 101% | 89.9% | 105% | 103% | 106% | 99.7% | 96.7% | 111% | 102% | 100% | 99.3% | 102% | 95.5% | 110% | 109%
